Patent publication US12692253B2, “Antimicrobial compounds and methods” (Curza Global, LLC, priority 2019, dated 2026)

Tests used:
[1] = tested on: E. coli S30 extract (bacterial protein synthesis); assay: E. coli S30 extract coupled transcription-translation luciferase assay (inhibition of bacterial protein synthesis); type: biochemical; conditions: % inhibition @ 1 μM, read-out: S30 IC50 (μM/% inhib.)
Summary of the method: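 Coupled transcription-translation in E. coli S30 circular-DNA extract expressing luciferase from pBESTluc, with 8-point 2-fold compound dilutions; 1 hour at 37 °C, stopped at 4 °C. Luminescence read; % inhibition versus no-inhibitor wells, no-DNA wells as background.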

E. coli (Ec) = assay: Broth microdilution minimum inhibitory concentration (MIC), CLSI; type: cell-based; conditions: Escherichia coli, growth medium with sodium bicarbonate, read-out: E. coli + bicarb MIC
Summary of the method: (§1)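 Bacteria grown at 35±2 °C to 0.5 McFarland turbidity were added at 5×10^4 CFU/well to triplicate two-fold compound series (8 dilutions). Media were cation-adjusted Mueller-Hinton broth alone or with sodium bicarbonate (6.25 or 25 mM final) or heat-inactivated human serum (0–50%), per modified CLSI method.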

P. aeruginosa (Pa) = assay: as above; type: cell-based; conditions: Pseudomonas aeruginosa, growth medium with sodium bicarbonate, read-out: Pa MIC + bicarb
Summary of the method: as §1

S. aureus (Sa) = assay: as above; type: cell-based; conditions: Staphylococcus aureus, growth medium with sodium bicarbonate, read-out: Sa + bicarb MIC
Summary of the method: as §1

A. baumannn (Ab) = assay: as above; type: cell-based; conditions: A. baumannn; growth medium with sodium bicarbonate; read-out: Ab + bicarb MIC
Summary of the method: as §1

E. faecalis (Ef) = assay: as above; type: cell-based; conditions: Enterococcus faecalis, growth medium with sodium bicarbonate, read-out: Ef + bicarb MIC
Summary of the method: as §1

[2] = target: Rabbit Reticulocyte Lysate (eukaryotic protein synthesis); assay: Rabbit reticulocyte lysate luciferase assay (inhibition of eukaryotic protein synthesis); type: biochemical; conditions: % inhibition @ 1 μM, read-out: Rabbit reticulocyte IC50 (μM/% inhib.)
Summary of the method: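 In vitro translation of luciferase control RNA in nuclease-treated rabbit reticulocyte lysate with amino acid mixture, compounds in 2-fold serial dilution, 90 minutes at 30° C. Luminescence read after luciferase reagent; % inhibition relative to water no-inhibitor controls, with no-RNA background wells.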

SMILES	IC50 [1] [µM]	MIC (E. coli (Ec)) [µg/mL]	MIC (P. aeruginosa (Pa)) [µg/mL]	MIC (S. aureus (Sa)) [µg/mL]	MIC (A. baumannn (Ab)) [µg/mL]	MIC (E. faecalis (Ef)) [µg/mL]	IC50 [2] [µM]
CC(Cc1ccc(-n2ccc(NC(=O)N3CCN(C(=O)C(C)(C)N)CC3)nc2=O)cc1)N(CC(F)(F)F)C1CC2(CC(N)C2)C1 (centres unmarked) [Compound 195]	≥ 1	> 32	> 32	8 to 32	> 32	> 32	≥ 1
CC(C)N(C(C)Cc1ccc(-n2ccc(NC(=O)N3CCN(C(=O)C(C)(C)N)CC3)nc2=O)cc1)C1CC2(CC(N)C2)C1 (centres unmarked) [Compound 196]	≥ 1	> 32	> 32	> 32	> 32	> 32	≥ 1
CC(Cc1ccc(-n2ccc(NC(=O)N3CCN(C(=O)C(C)(C)N)CC3)nc2=O)cc1)N(CCO)C1CC2(CC(N)C2)C1 (centres unmarked) [Compound 197]	≥ 1	< 8	> 32	< 8	> 32	8 to 32	≥ 1
CCN(C(C)Cc1ccc(-n2ccc(NC(=O)N3CCN(C(=O)C(C)(C)N)CC3)nc2=O)cc1)C12CC(N)(C1)C2 (centres unmarked) [Compound 198]	≥ 1	8 to 32	> 32	8 to 32	> 32	> 32	≥ 1
CC(Cc1ccc(-n2ccc(NC(=O)N3CCN(C(=O)C(C)(C)N)CC3)nc2=O)cc1)N(C)C12CC(N)(C1)C2 (centres unmarked) [Compound 199]	≥ 1	8 to 32	> 32	8 to 32	> 32	> 32	≥ 1
CC(Cc1ccc(-n2ccc(NC(=O)N3CCN(C(=O)C(C)(C)N)CC3)nc2=O)cc1)N(C)C12CC(CN)(C1)C2 (centres unmarked) [Compound 200]	≥ 1	< 8	> 32	< 8	> 32	> 32	≥ 1
CCN(C(C)Cc1ccc(-n2ccc(NC(=O)N3CCN(C(=O)C(C)(C)N)CC3)nc2=O)cc1)C12CC(CN)(C1)C2 (centres unmarked) [Compound 201]	< 0.5	< 8	> 32	< 8	> 32	< 8	≥ 1
CC(Cc1ccc(-n2ccc(NC(=O)N3CCN(C(=O)C(C)(C)N)CC3)nc2=O)cc1)NC12CC(N)(C1)C2 (centres unmarked) [Compound 202]	≥ 1	> 32	> 32	> 32	8 to 32	> 32	≥ 1
CC(Cc1ccc(-n2ccc(NC(=O)N3CCN(C(=O)C(C)(C)N)CC3)nc2=O)cc1)NC12CC(CN)(C1)C2 (centres unmarked) [Compound 203]	≥ 1	8 to 32	> 32	8 to 32	> 32	> 32	≥ 1
CC(Cc1ccc(-n2ccc(NC(=O)N3CCN(C(=O)C(C)(C)N)CC3)nc2=O)cc1)NCC1[C@H]2CNC[C@@H]12 (some centres unmarked) [Compound 204]	≥ 1	< 8	> 32	< 8	> 32	> 32	≥ 1
CC(Cc1ccc(-n2ccc(NC(=O)N3CCN(C(=O)C(C)(C)N)CC3)nc2=O)cc1)N1C[C@@H]2[C@H](C1)[C@H]2C(C)(C)N (some centres unmarked) [Compound 205]	≥ 1	8 to 32	> 32	8 to 32	> 32	> 32	≥ 1
CC(C)(N)C(=O)N1CCN(C(=O)Nc2ccn(-c3ccc(CN4C[C@@H]5C(C(C)(C)N)[C@@H]5C4)cc3)c(=O)n2)CC1 (some centres unmarked) [Compound 206]	< 0.5	< 8	> 32	< 8	> 32	8 to 32	≥ 1
CC(C)(N)C(=O)N1CCN(C(=O)Nc2ccn(-c3ccc(CN4C[C@@H]5C([C@H](N)CO)[C@@H]5C4)cc3)c(=O)n2)CC1 (some centres unmarked) [Compound 207]	< 0.5	< 8	> 32	< 8	> 32	8 to 32	≥ 1
CC(Cc1ccc(-n2ccc(NC(=O)N3CCN(C(=O)C(C)(C)N)CC3)nc2=O)cc1C(F)(F)F)N1C[C@@H]2[C@@H](CN)[C@@H]2C1 (some centres unmarked) [Compound 208]	< 0.5	< 8	> 32	< 8	8 to 32	< 8	≥ 1
